According to patent US7098219B2, “Inhibitors of cellular efflux pumps of microbes” (Wockhart Limited, priority 2000, dated 2006):

Columns and labels:
E. coli 2051 = assay: Antibiotic diffusion assay, levofloxacin plate versus water control plate; type: cell-based, Escherichia coli; details: zone of inhibition in levofloxacin (15 mcg/ml) plate minus water control plate; Mueller Hinton Agar, 35° C. 20 hours
Procedure: (§1) Testing method for Inhibition of the Efflux Pumps of Pseudomonas aeruzinosa 23587, E. coli 2051, Streptococcus pneumoniae 3514 and Streptococcus pyozenus 26-00
The activity of an efflux pump inhibitor of E. coli 2051 was also assessed using an antibiotic diffusion assay. For this assay E. coli 2051 is used. E. coli 2051 is a clinical isolate containing multiple efflux pumps. E. coli 2051 are grown in tryptic soya broth for 20 hours at 35° C. Two antibiotic assay plates are prepared in Mueller Hinton Agar using above inoculum. The bacterial count in a plate is 1×10^6 cells/ml. In one of the plates, levofloxacin is incorporated at 15 mcg/ml, while in the control plate an equivalent amount of water is added. […]. The plates are incubated at 35° C. for 20 hours and the zone of inhibition was recorded in mm (table 3) . The difference in the diameter of zone of inhibition was calculated by subtracting from the zone of inhibition in the levofloxacin containing plate the diameter of the zone of inhibition in the control plate.

[1] = tested on: Pseudomonas aeruginosa 23587; assay: as above; type: cell-based; details: zone of inhibition in levofloxacin (5 mcg/ml) plate minus water control plate; Mueller Hinton Agar, 35° C. 20 hours
Procedure: as §1
Antibiotic Diffusion Assay
The activity of efflux pump inhibitor was also assessed using an antibiotic diffusion assay. For this assay Pseudomonas aeruginosa 23587 is used. Pseudomonas aeruginosa 23587 is a clinical isolate containing multiple efflux pumps which can be mexAB, mexCD, mexEF but not limited to mex classification only. Pseudomonas aeruginosa are grown in tryptic soya broth for 20 hours at 35° C. Two antibiotic assay plates are prepared in Mueller Hinton Agar using above inoculum. The bacterial count in a plate is 1×10^6 cells/ml. In one of the plates, levofloxacin is incorporated at 5 mcg/ml, while in the control plate an equivalent amount of water is added. […]. The plates are incubated at 35° C. for 20 hours and the zone of inhibition was recorded in mm (table 2). The difference in the diameter of zone of inhibition was calculated by subtracting from the diameter of the zone of inhibition in the levofloxacin containing plate the diameter of the zone of inhibition in the water containing control plate. Example, if the diameter of the zone of inhibition in the levofloxacin plate is X mm and the diameter of the zone of inhibition in the control plate is Y mm, the difference Z=X−Y and is a measure of the activity of the efflux pump inhibitor.

[2] = tested on: Mef Efflux Pump of Streptococcus pneumoniae 3514 and Streptococcus pyogenes 26-00; assay: Two plate diffusion assay for macrolide (Mef) efflux pump inhibitors, azithromycin plate versus control plate; type: cell-based; details: zone of inhibition in antibiotic plate (method: azithromycin 0.5 mcg/ml; footnote: levofloxacin) minus water control plate; strain not given
[3] = tested on: Staphylococcus aureus 1199 B NorA+; type: cell-based; details: combination with ciprofloxacin, broth microdilution checkerboard, 35° C. 20 hours; FIC index ≦0.5 synergistic, 0.5–2.0 additive, >2.0 antagonistic
In short: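 Broth microdilution checkerboard with ciprofloxacin against S. aureus 1199B NorA+, pump inhibitor titrated along one axis; inoculum 5×10^5 CFU/ml in Mueller Hinton broth, 35 °C for 20 hours. Growth read by visible turbidity, confirmed by plate reader; FIC index derived from inhibitor MIC in combination versus alone.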

Compound	Difference in Zone diameter Z1 (mm) (E. coli 2051)	Difference in Zone diameter Z1 (mm) [1] [mm]	Difference in Zone diameter Z1 (mm) [2] [mm]	FIC INDEX [3]
10-Fluoro-11-[(1∝,5∝,6∝)-6-amino-3-azabicyclo[3.1.01]hex-3yl]-3,4-dihydro-4(S)-methyl-8-oxo-2H,8H-pyrido[1,2,3-ef]-1,5-benzoxazipin-7-carboxylic acid. HCl [Example 37 (P. aeruginosa)]	5	2	–	–
C[C@@H]1CN(c2c(F)cc3c(=O)c(C(=O)O)cn4c3c2CC[C@@H]4C)CC[C@H]1O (relative stereo) [Example 35 (P. aeruginosa), S-(−)-9-Fluoro-6,7-dihydro-8-(trans-4′-hydroxy-3′-methylpiperidin-1-yl]-5-methyl-1H,5H-benzo[i,j]quinolizine-2-carboxylic acid]	8	8	–	–
Cc1c(F)c(Br)cc2c1c(=O)c(C(=O)O)cn2C1CC1 [Example 2 (P. aeruginosa), 7-Bromo-1-cyclopropyl-6-fluoro-5-methyl-1l 4-dihydro-4-oxo-quinoline-3-carboxylic acid]	9	1	–	–
COc1c(N2CCC(N)C(C)C2)c(F)cc2c(=O)c(C(=O)O)cn(C3CC3)c12 (centres unmarked) [Example 3 (P. aeruginosa), 1-Cyclopropyl-6-fluoro-8-methoxy-1,4-dihydro-7-(4′-amino-3′-methylpiperidin-1-yl)-4-oxo-quinoline-3-carboxylic acid]	10	7	26	–
COc1c(N2CCC(N)C(C)(C)C2)c(F)cc2c(=O)c(C(=O)O)cn(C3CC3)c12 (centres unmarked) [Example 6 (P. aeruginosa), 1-Cyclopropyl-6-fluoro-8-methoxy-1,4-dihydro-7-(4′-amino-3′-3′-dimethylpiperidin-1-yl)-4-oxo-quinoline-3-carboxylic acid]	11	12	–	–
C[C@H]1CCc2c(N3CCC(O)CC3)c(F)cc3c(=O)c(C(=O)O)cn1c23 [Example 21 (P. aeruginosa), S-(−)-9-Fluoro-6,7-dihydro-8-(4′-hydroxypiperidin-1-yl)-5-methyl-1-oxo-1H,5H-benzo[i,j]quinolizine-2-carboxylic acid 0.2 hydrate]	9	5	–	–
C[C@H]1CCc2c(N3CCC(O)CC3)c(F)cc3c(=O)c(C(=O)[O-])cn1c23.C[N+](C)(C)CCO [Example 22 (P. aeruginosa), S-(−)-9-Fluoro-6,7-dihydro-8-(4′-hydroxypiperidin-1-yl)-5-methyl-1-oxo-1H,5H-benzo[i,j]quinolizine-2-carboxylic acid, choline salt]	9	3	–	–
C[C@H]1CCc2c(N3CCC(O)CC3)c(F)cc3c(=O)c(C(=O)O)cn1c23.OCCNCCO [Example 24 (P. aeruginosa), S-(−)-9-Fluoro-6,7-dihydro-8-(4′-hydroxypiperidin-1-yl)-5-methyl-1-oxo-1H,5H-benzo[i,j]quinolizine-2-carboxylic acid, diethanolamine salt]	11	4	–	–
CC(C)C[C@@H](N)C(=O)OC1CCN(c2c(F)cc3c(=O)c(C(=O)O)cn4c3c2CC[C@@H]4C)CC1.Cl [Example 29 (P. aeruginosa), (S)-(−)-9-Fluoro-6,7-dihydro-8-{4′-(D-leucyloxy)piperidin-1-yl}-5-methyl-1-oxo-1H,5H-benzo[i,j]quinolizine-2-carboxylic acid hydrochloride]	18	12	–	–
(R)-(+)-9,8-fluoro-8-fluoro-6,7-dihydro-5-methyl-1-oxo-1H,5H-benzo[i,j]quinolizine-2-carboxylate Methoxy phe-lys-OMe [Example 32 (P. aeruginosa)]	11	8	–	–
(S)-(−)-Morpholinoethyl-9-fluoro-6,7-dihydro-8-(4′-hydroxypiperidin-1-yl)-5-methyl-1-oxo-1H,5H-benzo[i,j]quinolizine-2-carboxylic acid [Example 58 (NorA)]	8	2	–	0.370
S-(-9-Fluoro-6,7-dihydro-8-(4′-hydroxypiperidin-1-yl)-5-methyl-1-oxo-1H,5H-benzo[i,j]quinolizine-2-carboxylic acid, 1-hydroxyethylpyrrolidine salt [Example 23 (P. aeruginosa)]	11	3	–	–
